Patent publication US4504580A, “Antibiotics produced by fermentation of a novel strain of Streptomyces hygroscopicus” (Bristol-Myers Company, priority 1983, dated 1985)
≈ marks a conversion by molar mass, not a printed value. Where two headings read alike, the source gives them in different places.

Columns and labels:
Format in all cases: cell-based
Micrococcus flavus D12 = test: MIC by serial two-fold agar dilution, M. flavus D12; settings: Micrococcus flavus, D12
Procedure: (§1) The minimum inhibitory concentrations (MIC) of Bu-2659A, B, C, D and E were determined for a variety of gram-positive and gram-negative bacteria by the serial two-fold agar dilution method using the Steer's multi-inoculating apparatus. The inoculum was standardized as a 10^4 dilution of an overnight culture of the test organisms in Heart Infusion Broth (Difco). […] Reference antibiotics utilized in these tests included commercially available neomycin as well as its components, neomycins B and C [as used herein, the term "neomycin" means the commercial product containing neomycins B and C at an approximate ratio of 7:3], paromomycin [the commercial product containing >90% of paromomycin I and <10% of paromomycin II] and ribostamycin.

Escherichia coli JR88 = test: MIC, aminoglycoside-resistant E. coli JR88; settings: Escherichia coli, JR88
Procedure: as §1

Proteus vulgaris A9436 = test: MIC by serial two-fold agar dilution, P. vulgaris A9436; settings: Proteus vulgaris, A9436
Procedure: as §1

[1] = tested on: Staphylococcus aureus 209P; test: MIC by serial two-fold agar dilution, S. aureus 209P; settings: Staphylococcus aureus, 209P
Procedure: as §1

[2] = tested on: Micrococcus luteus PCI 1001; test: MIC by serial two-fold agar dilution, M. luteus PCI 1001; settings: Micrococcus luteus, PCI1001
Procedure: as §1

[3] = tested on: Staphylococcus aureus Smith; test: MIC by serial two-fold agar dilution, S. aureus Smith; settings: Staphylococcus aureus
Procedure: as §1

[4] = tested on: Bacillus brevis IFO 12334; test: MIC, aminoglycoside-resistant B. brevis IFO 12334; settings: Brevibacillus brevis, IFO12334
Procedure: as §1

[5] = tested on: Escherichia coli JR35/C600; test: MIC, aminoglycoside-resistant E. coli JR35/C600; settings: Escherichia coli, JR35/C600
Procedure: as §1

[6] = tested on: Pseudomonas aeruginosa A20601; test: MIC, aminoglycoside-resistant P. aeruginosa A20601; settings: Pseudomonas aeruginosa, A20601
Procedure: as §1

[7] = tested on: Enterobacter cloacae A20364; test: MIC, aminoglycoside-resistant E. cloacae A20364; settings: Enterobacter cloacae, A20364
Procedure: as §1

[8] = tested on: Pseudomonas aeruginosa D15; test: MIC by serial two-fold agar dilution, P. aeruginosa D15; settings: Pseudomonas aeruginosa, D15
Procedure: as §1

Escherichia coli ML 1630 = test: MIC, aminoglycoside-resistant E. coli ML 1630; settings: Escherichia coli, ML1630; Table 9; inactivating enzyme APH(3')-I; Mueller-Hinton agar; read-out: MIC
Procedure: as §1

Escherichia coli A20107 = test: MIC, aminoglycoside-resistant E. coli A20107; settings: Escherichia coli, A20107; Table 9; inactivating enzyme APH(3')-II; Mueller-Hinton agar; read-out: MIC
Procedure: as §1

[9] = tested on: Pseudomonas aeruginosa A20896; test: MIC, aminoglycoside-resistant P. aeruginosa A20896; settings: Pseudomonas aeruginosa, A20896
Procedure: as §1

Proteus rettgeri A15167 = test: MIC by serial two-fold agar dilution, P. rettgeri A15167; settings: Providencia rettgeri, A15167
Procedure: as §1

Proteus mirabilis A9906 = test: MIC by serial two-fold agar dilution, P. mirabilis A9906; settings: Proteus mirabilis, A9906
Procedure: as §1

[10] = tested on: Pseudomonas aeruginosa A9930; test: MIC by serial two-fold agar dilution, P. aeruginosa A9930; settings: Pseudomonas aeruginosa, A9930
Procedure: as §1

[11] = tested on: Escherichia coli JR66/W677; test: MIC, aminoglycoside-resistant E. coli JR66/W677; settings: Escherichia coli, JR66/W677
Procedure: as §1

[12] = tested on: Serratia marcescens A20019; test: MIC by serial two-fold agar dilution, S. marcescens A20019; settings: Serratia marcescens, A20019
Procedure: as §1

Proteus morganii A9553 = test: MIC by serial two-fold agar dilution, P. morganii A9553; settings: Morganella morganii, A9553
Procedure: as §1

[13] = tested on: Escherichia coli NR79/W677; test: MIC, aminoglycoside-resistant E. coli NR79/W677; settings: Escherichia coli, NR79/W677
Procedure: as §1

Escherichia coli NIHJ = test: MIC by serial two-fold agar dilution, E. coli NIHJ; settings: Escherichia coli
Procedure: as §1

[14] = tested on: Bacillus subtilis PCI 219; test: MIC by serial two-fold agar dilution, B. subtilis PCI 219; settings: Bacillus subtilis, PCI219
Procedure: as §1

Proteus mirabilis A9554 = test: MIC by serial two-fold agar dilution, P. mirabilis A9554; settings: Proteus mirabilis, A9554
Procedure: as §1

Escherichia coli A20732 = test: MIC, aminoglycoside-resistant E. coli A20732; settings: Escherichia coli, A20732; Table 9; inactivating enzyme ANT(2"); Mueller-Hinton agar; read-out: MIC
Procedure: as §1

[15] = tested on: Staphylococcus aureus D136; test: MIC by serial two-fold agar dilution, S. aureus D136; settings: Staphylococcus aureus, D136
Procedure: as §1

Escherichia coli Juhl = test: MIC by serial two-fold agar dilution, E. coli Juhl; settings: Escherichia coli
Procedure: as §1

[16] = tested on: Staphylococcus aureus A20239; test: MIC, aminoglycoside-resistant S. aureus A20239; settings: Staphylococcus aureus, A20239
Procedure: as §1

[17] = tested on: Klebsiella pneumoniae D11; test: MIC by serial two-fold agar dilution, K. pneumoniae D11; settings: Klebsiella pneumoniae, D11
Procedure: as §1

Row | SMILES | MIC (Micrococcus flavus D12) | MIC (Escherichia coli JR88) | MIC (Proteus vulgaris A9436) | MIC [1] | MIC [2] | MIC [3] | MIC [5] | MIC [8] | MIC (Escherichia coli ML 1630) | MIC (Escherichia coli A20107) | MIC (Proteus rettgeri A15167) | MIC (Proteus mirabilis A9906) | MIC [10] | MIC [11] | MIC [12] | MIC (Proteus morganii A9553) | MIC [13] | MIC [14] | MIC (Proteus mirabilis A9554) | MIC (Escherichia coli A20732) | also measured
1 | NC[C@H]1O[C@H](O[C@H]2[C@H](O[C@@H]3O[C@H](CO)[C@@H](O)[C@H]3O)[C@@H](O)[C@H](N)C[C@@H]2N)[C@H](N)[C@@H](O)[C@@H]1O [Ribostamycin, ribostamycin] | 12.5 µg/mL (≈ 27.5 µM) | 1.6 µg/mL (≈ 3.52 µM) | 0.8 µg/mL (≈ 1.76 µM) | 1.6 µg/mL (≈ 3.52 µM) | 6.3 µg/mL (≈ 13.9 µM) | 3.1 µg/mL (≈ 6.82 µM) | > 100 µg/mL | > 100 µg/mL | > 100 µg/mL | > 100 µg/mL | 0.8 µg/mL (≈ 1.76 µM) | 1.6 µg/mL (≈ 3.52 µM) | 100 µg/mL (≈ 220 µM) | > 100 µg/mL | 25 µg/mL (≈ 55 µM) | 1.6 µg/mL (≈ 3.52 µM) | > 100 µg/mL | 0.4 µg/mL (≈ 0.88 µM) | 1.6 µg/mL (≈ 3.52 µM) | 1.6 µg/mL (≈ 3.52 µM) | MIC ([4]; Table 9, inactivating enzyme ANT (4'), Mueller-Hinton agar, read-out: MIC): > 100 µg/mL; MIC ([6]; Table 9, inactivating enzymes AAC(3)-I, APH(3')-II, Mueller-Hinton agar, read-out: MIC): > 100 µg/mL; MIC ([7]; Table 9, inactivating enzyme APH(3')-I, Mueller-Hinton agar, read-out: MIC): > 100 µg/mL; MIC ([9]; Table 9, inactivating enzyme AAC(3)-II, Mueller-Hinton agar, read-out: MIC): > 100 µg/mL; MIC (Escherichia coli NIHJ): 3.1 µg/mL (≈ 6.82 µM); MIC [15]: 3.1 µg/mL (≈ 6.82 µM); MIC (Escherichia coli Juhl): 6.3 µg/mL (≈ 13.9 µM); MIC ([16]; Table 9, inactivating enzyme APH(3')-I,II, Mueller-Hinton agar, read-out: MIC): > 100 µg/mL; MIC [17]: 0.4 µg/mL (≈ 0.88 µM)
2 | NC[C@@H]1O[C@H](O[C@H]2[C@@H](O)[C@H](O[C@@H]3[C@@H](O)[C@H](N)C[C@H](N)[C@H]3O[C@H]3O[C@H](CO)[C@@H](O)[C@H](O)[C@H]3N)O[C@@H]2CO)[C@H](N)[C@@H](O)[C@@H]1O [Paromomycin, paromomycin] | 12.5 µg/mL (≈ 20.3 µM) | 1.6 µg/mL (≈ 2.6 µM) | 0.8 µg/mL (≈ 1.3 µM) | 0.8 µg/mL (≈ 1.3 µM) | 6.3 µg/mL (≈ 10.2 µM) | 1.6 µg/mL (≈ 2.6 µM) | > 100 µg/mL | 50 µg/mL (≈ 81.2 µM) | > 100 µg/mL | > 100 µg/mL | 1.6 µg/mL (≈ 2.6 µM) | 0.8 µg/mL (≈ 1.3 µM) | 12.5 µg/mL (≈ 20.3 µM) | > 100 µg/mL | 1.6 µg/mL (≈ 2.6 µM) | 1.6 µg/mL (≈ 2.6 µM) | > 100 µg/mL | 0.2 µg/mL (≈ 0.325 µM) | 0.8 µg/mL (≈ 1.3 µM) | 1.6 µg/mL (≈ 2.6 µM) | MIC [4]: > 100 µg/mL; MIC [6]: > 100 µg/mL; MIC [7]: > 100 µg/mL; MIC [9]: > 100 µg/mL; MIC (Escherichia coli NIHJ; Table 7, Mueller-Hinton agar, read-out: MIC): 3.1 µg/mL (≈ 5.04 µM); MIC [15]: 0.8 µg/mL (≈ 1.3 µM); MIC (Escherichia coli Juhl): 12.5 µg/mL (≈ 20.3 µM); MIC [16]: > 100 µg/mL; MIC [17]: 0.4 µg/mL (≈ 0.65 µM)
